Data as given in paper PMC4450297, “Screening Active Compounds from Garcinia Species Native to China Reveals Novel Compounds Targeting the STAT/JAK Signaling Pathway” (BioMed Research International, 2015).

Experiments:
Experiment in all cases: Cell panel screen (CellTiter-Glo)
Type in all cases: cell-based, human
NCI-H1694 = NCI-H1694 (Lung), 20 micromolar, 72 hrs
Method in brief: (§1)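 ATCC lines in supplier media with 10% FBS, seeded and cultured overnight at 37° C., then exposed to compound at 20 μM final for 72 h. CellTiter-Glo luminescence; % growth inhibition relative to DMSO-treated controls after subtracting cell-free background.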

Bel-7402 = Bel-7402 (Liver), 20 micromolar, 72 hrs
Method in brief: as §1

RL95 = RL95 (Uterus), 20 micromolar, 72 hrs
Method in brief: as §1

NCI-H524 = NCI-H524 (Lung), 20 micromolar, 72 hrs
Method in brief: as §1

C8166 = C8166 (Leukemia), 20 micromolar, 72 hrs
Method in brief: as §1

ZR-75-30 = ZR-75-30 (Breast), 20 micromolar, 72 hrs
Method in brief: as §1

HEC-1-A = HEC-1-A (Uterus), 20 micromolar, 72 hrs
Method in brief: as §1

HCC1569 = HCC1569 (Breast), 20 micromolar, 72 hrs
Method in brief: as §1

HT-1197 = HT-1197 (Urinary bladder), 20 micromolar, 72 hrs
Method in brief: as §1

HCC1395 = HCC1395 (Breast), 20 micromolar, 72 hrs
Method in brief: as §1

A704 = A704 (Kidney), 20 micromolar, 72 hrs
Method in brief: as §1

HCC1937 = HCC1937 (Breast), 20 micromolar, 72 hrs
Method in brief: as §1

HGC-27 = HGC-27 (Stomach), 20 micromolar, 72 hrs
Method in brief: as §1

NCI-H1623 = NCI-H1623 (Lung), 20 micromolar, 72 hrs
Method in brief: as §1

TCCSUP = TCCSUP (Urinary bladder), 20 micromolar, 72 hrs
Method in brief: as §1

T47D = T47D (Breast), 20 micromolar, 72 hrs
Method in brief: as §1

Colo 205 = conditions: Colo 205, 20 micromolar, 72 hrs
Method in brief: as §1

Panc 03.27 = Panc 03.27 (Pancreas), 20 micromolar, 72 hrs
Method in brief: as §1

NCI-H1770 = NCI-H1770 (Lung), 20 micromolar, 72 hrs
Method in brief: as §1

M059J = M059J (Brain), 20 micromolar, 72 hrs
Method in brief: as §1

C3A = C3A (Liver), 20 micromolar, 72 hrs
Method in brief: as §1

BT-549 = BT-549 (Breast), 20 micromolar, 72 hrs
Method in brief: as §1

HPAF-II = HPAF-II (Pancreas), 20 micromolar, 72 hrs
Method in brief: as §1

SW13 = SW13 (Adrenal gland), 20 micromolar, 72 hrs
Method in brief: as §1

NCI-H2405 = NCI-H2405 (Lung), 20 micromolar, 72 hrs
Method in brief: as §1

BT-474 = BT-474 (Breast), 20 micromolar, 72 hrs
Method in brief: as §1

CW-2 = CW-2 (Colon), 20 micromolar, 72 hrs
Method in brief: as §1

ChaGo-K-1 = ChaGo-K-1 (Lung), 20 micromolar, 72 hrs
Method in brief: as §1

NCI-H2347 = NCI-H2347 (Lung), 20 micromolar, 72 hrs
Method in brief: as §1

A498 = A498 (listed under Lung), 20 micromolar, 72 hrs
Method in brief: as §1

NCI-H28 = NCI-H28 (Lung), 20 micromolar, 72 hrs
Method in brief: as §1

MSTO-211-H = MSTO-211-H (Lung), 20 micromolar, 72 hrs
Method in brief: as §1

J82 = J82 (Urinary bladder), 20 micromolar, 72 hrs
Method in brief: as §1

T98G = T98G (Brain), 20 micromolar, 72 hrs
Method in brief: as §1

HCC1599 = HCC1599 (Breast), 20 micromolar, 72 hrs
Method in brief: as §1

CCF-STTG1 = CCF-STTG1 (Brain), 20 micromolar, 72 hrs
Method in brief: as §1

[1] = Homo sapiens, read-out: Percent Inhibition

In the case of `COC(=O)C1OC(Oc2cc(O)c3c(=O)cc(-c4ccc(O)cc4)oc3c2)C(O)C(O)C1O` (stereo not drawn) [WZ-6], the “Percent Inhibition” value (NCI-H1694) is reported as -9%, the “Percent Inhibition” value (Bel-7402) is reported as 1% and the “Percent Inhibition” value (RL95) is reported as -5%. For the same molecule, the “Percent Inhibition” value (NCI-H524) was -11%, the “Percent Inhibition” value (C8166) was -15% and the “Percent Inhibition” value (ZR-75-30) was -2%. The “Percent Inhibition” value (HEC-1-A) was 1%, the “Percent Inhibition” value (HCC1569) was -18% and the “Percent Inhibition” value (HT-1197) was 16%. For the same molecule, the “Percent Inhibition” value (HCC1395) was 21%, the “Percent Inhibition” value (A704) was -9% and the “Percent Inhibition” value (HCC1937) was 3%. For the same molecule, the “Percent Inhibition” value (HGC-27) was -8%, the “Percent Inhibition” value (NCI-H1623) was -8% and the “Percent Inhibition” value (TCCSUP) was 8%. For the same molecule, the “Percent Inhibition” value (T47D) was 4%, the “Percent Inhibition” value (Colo 205) was 4% and the “Percent Inhibition” value (Panc 03.27) was -4%. For the same molecule, the “Percent Inhibition” value (NCI-H1770) was -1%, the “Percent Inhibition” value (M059J) was 2% and the “Percent Inhibition” value (C3A) was -1%. For the same molecule, the “Percent Inhibition” value (BT-549) was -16%, the “Percent Inhibition” value (HPAF-II) was -14% and the “Percent Inhibition” value (SW13) was 1%. The “Percent Inhibition” value (NCI-H2405) was -12%, the “Percent Inhibition” value (BT-474) was -12% and the “Percent Inhibition” value (CW-2) was 12%. The “Percent Inhibition” value (ChaGo-K-1) was -16%, the “Percent Inhibition” value (NCI-H2347) was -3% and the “Percent Inhibition” value (A498) was 13%. For the same molecule, the “Percent Inhibition” value (NCI-H28) was 6%, the “Percent Inhibition” value (MSTO-211-H) was 6% and the “Percent Inhibition” value (J82) was -5%. The “Percent Inhibition” value (T98G) was 4%, the “Percent Inhibition” value (HCC1599) was 12% and the “Percent Inhibition” value (CCF-STTG1) was -3%.
Molecule `CC(C)=CCc1c(O)cc2oc3c(CC=C(C)C)c(O)c(O)c(CC=C(C)C)c3c(=O)c2c1O` [bn-1, Garcinone E] has an inhibition at 20 µM (NCI-H1694; [1]) of 100%, an inhibition at 20 µM (Bel-7402; [1]) of 98% and an inhibition at 20 µM (RL95; [1]) of 99%. The inhibition at 20 µM (NCI-H524; [1]) was 100%, the inhibition at 20 µM (C8166; [1]) was 99% and the inhibition at 20 µM (ZR-75-30; [1]) was 99%. It also gave an inhibition at 20 µM (HEC-1-A; [1]) of 87%, an inhibition at 20 µM (HCC1569; [1]) of 96% and an inhibition at 20 µM (HT-1197; Homo sapiens, HT1197, read-out: Percent Inhibition) of 97%. The inhibition at 20 µM (HCC1395; [1]) was 100%, the inhibition at 20 µM (A704; [1]) was 98% and the inhibition at 20 µM (HCC1937; [1]) was 97%. For the same molecule, the inhibition at 20 µM (HGC-27; [1]) was 99%, the inhibition at 20 µM (NCI-H1623; [1]) was 91% and the inhibition at 20 µM (TCCSUP; Homo sapiens, TCC-SUP, read-out: Percent Inhibition) was 97%. The inhibition at 20 µM (T47D; [1]) was 82%, the inhibition at 20 µM (Colo 205; [1]) was 98% and the inhibition at 20 µM (Panc 03.27; Homo sapiens, PANC-03-27, read-out: Percent Inhibition) was 90%. The inhibition at 20 µM (NCI-H1770; [1]) was 93%, the inhibition at 20 µM (M059J; [1]) was 95% and the inhibition at 20 µM (C3A; [1]) was 90%. It also gave an inhibition at 20 µM (BT-549; [1]) of 98%, an inhibition at 20 µM (HPAF-II; [1]) of 90% and an inhibition at 20 µM (SW13; [1]) of 97%. For the same molecule, the inhibition at 20 µM (NCI-H2405; [1]) was 93%, the inhibition at 20 µM (BT-474; [1]) was 87% and the inhibition at 20 µM (CW-2; [1]) was 99%. It also gave an inhibition at 20 µM (ChaGo-K-1; [1]) of 99%, an inhibition at 20 µM (NCI-H2347; [1]) of 79% and an inhibition at 20 µM (A498; [1]) of 98%. It also gave an inhibition at 20 µM (NCI-H28; [1]) of 95%, an inhibition at 20 µM (MSTO-211-H; [1]) of 98% and an inhibition at 20 µM (J82; [1]) of 98%. For the same molecule, the inhibition at 20 µM (T98G; [1]) was 100%, the inhibition at 20 µM (HCC1599; [1]) was 98% and the inhibition at 20 µM (CCF-STTG1; [1]) was 89%.
